# In ChEMBL document CHEMBL2074152, “Structural determinants of substrates for the prostaglandin transporter PGT” (Mol Pharmacol, 1996):
# Target: Solute carrier organic anion transporter family member 2A1 (Rattus norvegicus, UniProt Q00910)
# Assay: TP_TRANSPORTER: inhibition of PGE2 uptake in PGT-expressing HeLa cells
# Type: functional, cell-based
row,Compound,Ki [µM]
1,CCCCC[C@H](O)/C=C/C1=C(CCCCCCC(=O)O)C(=O)CC1 [PROSTAGLANDIN B1],0.0712
2,CCCCC[C@H](O)/C=C/[C@H]1C(=O)C[C@H](O)[C@@H]1CCCCCCC(=O)O [PROSTAGLANDIN D1],0.162
3,CCCCC[C@H](O)/C=C/[C@H]1C=CC(=O)[C@@H]1CCCCCCC(=O)O [PROSTAGLANDIN A1],0.286
4,CCCCC[C@H](O)/C=C/[C@@H]1[C@@H](C/C=C\CCCC(=O)O)[C@@H]2C[C@H]1OO2 [PROSTAGLANDIN H2],0.0382
